Measurements published in patent US6680332B1, “Substituted 5-oxo-5,6,7,8-tetrahydro-4H-1-benzopyrans and benzothiopyrans and the use thereof as potentiators of AMPA” (Euro-Celtique S.A., priority 1999, dated 2004).
“And” between values parts separate entries of the source, which are not always exact repeats. Identical values can stand only once.

Columns and labels:
AMPA receptors = assay: Electrophysiology: potentiation of AMPA-evoked membrane currents in Xenopus oocytes injected with rat cortical poly(A)+ RNA (two-electrode voltage clamp); assay type: cell-based; conditions: 10 μM AMPA; for AMPA positive potentiation 2-fold @ μM (concentration required for 2-fold potentiation of the AMPA response): rat cortical poly(A)+ RNA, holding potential -70 mV
Description: FIG. 1 depicts a graph showing the concentration-effect relationship for the potentiation of AMPA-evoked currents in Xenopus oocytes by the compound of Example 4. Xenopus oocytes were injected with rat cortical poly (A+) RNA and membrane currents were measured by a standard, two-microelectrode voltage clamp method. A solution of AMPA (10 μM) was superfused through the recording chamber in the absence (control) or presence of increasing concentrations of the compound of Example 4. “I” is membrane current.
The novel compounds of the invention were assessed by electrophysiological assays in Xenopus oocytes expressing rat […] poly(A)^+ RNA (see Keana et al, J. Med. Chem. 38:4367-4379 (1995)) or in cultured rat cortical neurons (see Woodward et al., Mol. Pharmacol. 47:568-581 (1995)) for AMPA receptor activity. The compounds that potentiate currents across the oocyte membrane are expected to be useful as cognitive enhancers or for the treatment of schizophrenia, myoclonus or neurodegenerative diseases such as Parkinson's disease and Alzheimer's disease. Thus, the present invention is directed to compounds that are positive modulators of AMPA receptors.
Total RNA was prepared from rat cerebral cortex by homogenization in urea/LiCl followed by phenol/chloroform extraction. Polyadenylated (poly A^+) mRNA was isolated from total cellular RNA by oligo-dT cellulose chromatography. Xenopus oocytes were prepared by the method of Woodward et al. (Mol. Pharmacol. 41, 89-103 (1992)). Oocytes were microinjected with approximately 50 ng of cortical poly(A)^+ RNA and stored in Barth's medium (containing in mM: NaCl, 88; KCl, 1; CaCl2, 0.41; Ca(NO3)2, 0.33; MgSO4, 0.82; NaHCO3, 2.4; HEPES 5; pH 7.4, with 0.1 mg/ml gentamycin sulphate) for 6 days prior to recording. Membrane current responses were recorded in frog Ringer solution containing (in mM): NaCl, 115; KCl, 2; CaCl2, 1.8; HEPES, 5; pH 7.4, or in a nominally Ca^2+-free Ringer solution containing (in mM): NaCl, 115; KCl, 2; BaCl2, 1.8; HEPES, 5; pH 7.4. Electrical recordings were made using a conventional two-electrode voltage clamp (Dagan TEV-200). The oocyte was placed in a 5 ml chamber lined with nylon mesh, impaled with two micro-electrodes and voltage-clamped at a holding potential of −70 mV. A scaled up linear array system (Benveniste and Mayer, J. Physiol. 464, 131-163 (1993)) was used to superfuse the oocyte in Ringer solution and to apply drugs and wash solutions. A control concentration (10 μM) of AMPA was applied to the oocyte to determine a baseline membrane current response. The modulation of this response by AMPA potentiators was measured by applying increasing concentrations of the potentiator in Ringer solution for ˜30 s followed by coapplication of the potentiator with 10 μM AMPA. The resulting membrane current responses were analyzed by sigmoidal curve fitting (Origin, Microcal Software, Inc.).

## CC1(C)CC(=O)C2=C(C1)OC(N)=C(C#N)C2c1ccc([N+](=O)[O-])cc1 (stereo not drawn) [Example 12, 2-Amino-3-cyano-7,7-dimethyl-4-(4-nitrophenyl)-5-oxo-5,6,7,8-tetrakydro-4H-1-benzopyran]
AMPA receptors
  AMPA positive potentiation 2-fold @ μM (concentration required for 2-fold potentiation of the AMPA response): 60.0 µM

## 2-Amino-3-cyano-7,7-dimethyl-4-(3,4-difluoromethylenedioxyphenyl)-5-oxo-5,6,7,8-tetrahydro-4H-1-benzopyran [Example 15]
AMPA receptors
  AMPA positive potentiation 2-fold @ μM (concentration required for 2-fold potentiation of the AMPA response): 18.0 µM

## CC1(C)CC(=O)C2=C(C1)OC(N)=C(C#N)C2c1ccncc1 (stereo not drawn) [Example 13, 2-Amino-3-cyano-7,7-dimethyl-4-(4-pyridyl)-5-oxo-5,6,7,8-tetrahydro-4H-1-benzopyran]
AMPA receptors
  AMPA positive potentiation 2-fold @ μM (concentration required for 2-fold potentiation of the AMPA response): 60.0 µM
other
  melting point: 222 to 224 °C

## CC1(C)CC(=O)C2=C(C1)OC(N)=C(C#N)C2c1ccc(C#N)cc1 (stereo not drawn) [Example 16, 2-Amino-3-cyano-4-(4-cyanophenyl)-7,7-dimethyl-5-oxo-5,6,7,8-tetrahydro-4H-1-benzopyran]
AMPA receptors
  AMPA positive potentiation 2-fold @ μM (concentration required for 2-fold potentiation of the AMPA response): 20.0 µM
other
  melting point: 227 to 230 °C

## CC1(C)CC(=O)C2=C(C1)OC(N)=C(C#N)C2c1ccc(O)cc1 (stereo not drawn) [Example 10, 2-Amino-3-cyano-7,7-dimethyl-4-(4-hydroxyphenyl)-5-oxo-5,6,7,8-tetrakydro-4H-1-benzopyran]
AMPA receptors
  AMPA positive potentiation 2-fold @ μM (concentration required for 2-fold potentiation of the AMPA response): 14.0 µM

## CC1(C)CC(=O)C2=C(C1)OC(N)=C(C#N)C2c1cccc(O)c1 (stereo not drawn) [Example 7, 2-Amino-3-cyano-7,7-dimethyl-4-(3-hydroxyphenyl)-5-oxo-5,6,7,8-tetrahydro-4H-1-benzopyran]
AMPA receptors
  AMPA positive potentiation 2-fold @ μM (concentration required for 2-fold potentiation of the AMPA response): 12.0 µM
other
  melting point: 214 to 217 °C

## COc1ccc(C2C(C#N)=C(N)OC3=C2C(=O)CCC3)cc1 (stereo not drawn) [Example 5, 2-Amino-3-cyano-4-(4-methoxyphenyl)-5-oxo-5,6,7,8-tetrahydro-4H-1-benzopyran]
AMPA receptors
  AMPA positive potentiation 2-fold @ μM (concentration required for 2-fold potentiation of the AMPA response): 35.0 µM
other
  melting point: 209 to 212 °C

## CC1(C)CC(=O)C2=C(C1)OC(N)=C(C#N)C2c1ccc2ccccc2c1 (stereo not drawn) [Example 18, 2-Amino-3-cyano-7,7-dimethyl-4-(2-naphthyl)-5-oxo-5,6,7,8-tetrahydro-4H-1-benzopyran]
AMPA receptors
  AMPA positive potentiation 2-fold @ μM (concentration required for 2-fold potentiation of the AMPA response): 1.6 µM
other
  melting point: 259 to 262 °C

## CC1(C)CC(=O)C2=C(C1)OC(N)=C(C#N)C2c1ccccc1 (stereo not drawn) [Example 3, 2-Amino-3-cyano-7,7-dimethyl-4-phenyl-5-oxo-5,6,7,8-tetrahydro-4H-1-benzopyran]
AMPA receptors
  AMPA positive potentiation 2-fold @ μM (concentration required for 2-fold potentiation of the AMPA response): 12.0 µM

## CC1(C)CC(=O)C2=C(C1)OC(N)=C(C#N)C2c1ccc(F)cc1 (stereo not drawn) [Example 17, 2-Amino-3-cyano-7,7-dimethyl-4-(4-fluorophenyl)-5-oxo-5,6,7,8-tetrahydro-4H-1-benzopyran]
AMPA receptors
  AMPA positive potentiation 2-fold @ μM (concentration required for 2-fold potentiation of the AMPA response): 27.0 µM
other
  melting point: 189 to 193 °C

## CN(C)c1ccc(C2C(C#N)=C(N)OC3=C2C(=O)CC(C)(C)C3)cc1 (stereo not drawn) [Example 9, 2-Amino-3-cyano-7,7-dimethyl-4-(4-dimethylaminophenyl)-5-oxo-5,6,7,8-tetrahydro-4H-1-benzopyran]
AMPA receptors
  AMPA positive potentiation 2-fold @ μM (concentration required for 2-fold potentiation of the AMPA response): 12.0 µM
other
  melting point: 221 to 224 °C

## CC1(C)CC(=O)C2=C(C1)OC(N)=C(C#N)C2c1ccc2c(c1)OCO2 (stereo not drawn) [Example 4, 2-Amino-3-cyano7,7-dimethyl-4-(3,4-methylenedioxyphenyl)-5-oxo-5,6,7,8-tetrahydro-4H-1-benzopyran]
AMPA receptors; sigmoidal curve fitting, read-out: half-maximally effective concentration for potentiation of the AMPA response
  EC50: 16.6 µM
AMPA receptors; at 100 μM compound
  maximal potentiation of the AMPA response: 11 fold
AMPA receptors
  AMPA positive potentiation 2-fold @ μM (concentration required for 2-fold potentiation of the AMPA response): 4 µM and 4.0 µM

## COc1ccc(C2C(C#N)=C(N)OC3=C2C(=O)CC(C)(C)C3)cc1 (stereo not drawn) [Example 1, 2-Amino-3-cyano-7,7-dimethyl-4-(4-methoxyphenyl)-5-oxo-5,6,7,8-tetrahydro-4H-1-benzopyran]
AMPA receptors
  AMPA positive potentiation 2-fold @ μM (concentration required for 2-fold potentiation of the AMPA response): 7.0 µM

## CC1(C)CC(=O)C2=C(C1)OC(N)=C(C#N)C2c1ccc(Cl)cc1 (stereo not drawn) [Example 6, 2-Amino-3-cyano-4-(4chlorophenyl)-7,7-dimethyl-5-oxo-5,6,7,8-tetrahydro-4N-1-benzopyran]
AMPA receptors
  AMPA positive potentiation 2-fold @ μM (concentration required for 2-fold potentiation of the AMPA response): 18.0 µM

## Cc1cc(C)c(C2C(C#N)=C(N)OC3=C2C(=O)CC(C)(C)C3)c(C)c1 (stereo not drawn) [Example 2, 2-Amino-3-cyano-7,7-dimethyl-4-(2,4,6-trimethylphenyl)-5-oxo-5,6,7,8-tetrahydro-4H-1-benzopyran]
AMPA receptors
  AMPA positive potentiation 2-fold @ μM (concentration required for 2-fold potentiation of the AMPA response): 4.0 µM

## Cc1ccc(C2C(C#N)=C(N)OC3=C2C(=O)CC(C)(C)C3)cc1 (stereo not drawn) [Example 8, 2-Amino-3-cyano-7,7-dimethyl-4-(4-methylphenyl)-5-oxo-5,6,7,8-tetrahydro-4H-1-benzopyran]
AMPA receptors
  AMPA positive potentiation 2-fold @ μM (concentration required for 2-fold potentiation of the AMPA response): 12.0 µM

## COc1cc(C2C(C#N)=C(N)OC3=C2C(=O)CC(C)(C)C3)cc2c1OCO2 (stereo not drawn) [Example 14, 2-Amino-3-cyano-7,7-dimethyl-4-(3-methoxy-4,5-methylenedioxyphenyl)-5-oxo-5,6,7,8-tetrahydro-4H-1-benzopyran]
AMPA receptors
  AMPA positive potentiation 2-fold @ μM (concentration required for 2-fold potentiation of the AMPA response): 12.0 µM

## COc1cccc(C2C(C#N)=C(N)OC3=C2C(=O)CC(C)(C)C3)c1 (stereo not drawn) [Example 11, 2-Amino-3-cyano-7,7-dimethyl-4-(3-methzoxyphenyl)-5-oxo-5,6,7,8-tetrahydro-4H-1-benzopyran]
AMPA receptors
  AMPA positive potentiation 2-fold @ μM (concentration required for 2-fold potentiation of the AMPA response): 6.0 µM
